Entries after “also recorded” stand apart in the source; their conditions may differ. Peptide text beside a SMILES is read from it.
Key:
[1] = test system: lymphocyte proliferation in the human MLR; format: cell-based
Protocol: Whole blood from donors was obtained from Interstate Blood Bank, Memphis, Tenn. Blood specimens were handled in a biosafety level 2 containment facility as recommended for potentially infectious blood specimens in the CDC/NIH manual Biosafety in Microbiological and Biomedical Laboratories; 3rd edition, 1993, page 10. Peripheral blood mononuclear cells (PBMC) were separated from red blood cells and granulocytes by ficoll-hypaque purification. Whole peripheral blood was diluted 1:2 in PBS and 30 ml was overlayed onto 15 ml of ficoll-hypaque in 50 ml polypropylene tubes. The tubes were spun at 400×g for 30 min at 25° C. Following centrifugation, the interface between the upper plasma layer and the lower ficoll layer was collected, cells washed in RPMI-1640 2×, and viable counts determined using trypan blue. Cells to be used as responders in the assay were stored on ice until mitomycin C treatment of stimulator cells was completed.
PBMC, isolated as described above, to be used as stimulators in the assay were adjusted to 2-4×10^6 cells/ml in complete medium (RPMI 1640 containing 10% heat-inactivated human AB serum, 2 mM glutamine, 50 μM 2-mercaptoethanol and 100 U/ml penicillin-100 μg/ml streptomycin), and treated with mitomycin C (25 μg/ml) for 30 min in a 37° C. water bath. Following treatment, cells were washed with S volumes of complete medium 3×, and viable counts determine using trypan blue. To set up autologous stimulation controls some responder cells were also treated with mitomycin C as mentioned above.
Purified CTLA-4Ig fusion protein was produced, as described in Steurer et al. 1995, from a NS-1 cell line kindly donated by Dr. T. Strom (Beth Israel Hospital, Boston, Mass.) as a 1 mg/ml solution in sterile PBS. The protein was stored frozen at −80° C. Upon thawing, the aliquot was stored at 4° C. Purified peptides were lyophilized according to known procedures. Peptides were reconstituted in sterile PBS, pH 7.4 at 2 mM concentration, aliquoted in microfuge cubes and stored frozen at −20° C. For the assay, an aliquot of the peptide was thawed and diluted to 200 μM in complete medium.
For the one-way allogeneic mixed lymphocyte response (MLR) assay, responder cells were plated at 10^6 cells/well, and stimulator cells at 5×10^4 cells/well in 96-well round bottom plates. Cells were incubated with serial dilutions of the anti-CD4 Ab Leu 3A (1 μg/ml-0.06 μg/ml) in triplicate, or an isotype-matched control Ab. Cyclosporin A at 1 μg/ml was used as an additional control.
CTLA-4 Ig was serially diluted an.4 tested from 10 μg/ml to 0.15 μg/ml. Peptides were tested either directly or in the presence of a constant spiked-in dose of CTLA-4 Ig at 0.5 μg/ml. The plates were incubated at 37° C. in a humidified 5% CO2 atmosphere for 7 days.
Proliferation of the cells was determined by pulsing the wells with ^3H-Tdr (1 μCi/well) for the last 18 h of the assay. Plates were harvested using a Tomtec -late harvester and the counts incorporated determined using a Wallac microbetaplate plus reader.
A total of 34 peptides were tested for inhibition of lymphocyte proliferation in the human MLR. Each peptide was tested in a MLR at doses ranging from 12.5 to 100 μM. The activity of each peptide was identified by assigning a + and − tone peptide depending on its ability to inhibit lymphocyte proliferation in the MLR (cpms).

THP-1 cells = assay: Toxicity test on growing cell cultures; format: cell-based; conditions: 100 μM AT 199
Protocol: (§1) To determine if the activity of AT 199 was due to a specific effect on lymphocyte proliferation in the MLR or due to a non-specific inhibition of lymphocyte proliferation in general (i.e., toxicity), the toxicity of AT 199 was tested against THP-1, Jurkat, and resting and activated PBLs.
(§2) AT 199 and its control analogs were assayed for overt toxicity and non-specific inhibition. The peptides were added to growing cultures of THP-1 cells, Jurkat cells and primary peripheral blood lymphocytes (PBLs).

Jurkat cells = assay: Toxicity test on growing cell cultures; format: cell-based; conditions: 100 μM AT 199
Protocol: as §1, §2

PHA activated PBLs = assay: Mitogen (PHA) stimulation assay of PBL, 3H-Tdr incorporation; format: cell-based, human; conditions: for effect on PHA activation of PBLs / PHA stimulated T cells: in words
Protocol: For these assays, ficoll-hypaque purified PBMC (10^5 cells/well) were incubated in flat-bottom 96-well tissue culture plates with indicated concentrations or phytohemagglutinin (PHA; 5, 2.5, 1.25, 0.5 μg/ml) for 3 days at 37° C. in a humidified 5% CO2/air incubator. Cells were incubated in the presence or absence of various concentrations of CTLA-4 Ig, purified anti-CD80 mAb (1 μg/ml), anti-CD86 mAb (1 μg/ml), and peptides 199 and 201 serially diluted from 100 μM to 12.5 μM for the period of the assay.
Proliferation of the cells was determined by pulsing the wells with ^3H-Tdr (1 μCi/well) for the last 6 h of the assay. Plates were harvested using a Tomtec plate harvester and the counts incorporated determined using a Wallac microbetaplate plus reader.
AT 199 was tested for inhibition of PHA activated PBLs. PHA activation, while not specifically targeted at the CD28 pathway, has some dependence on this pathway depending on the concentration of PHA used to activate lymphocytes. To determine the […] of phytohemagglutinin (PHA) activation on CD28 signaling, CTLA-4Ig was included in each assay.
In order to test for an unanticipated mechanism of inhibition, AT 199 was assayed using PHA-stimulation of PBLs. Phytohemagglutinin (PHA) is a lectin extracted from the red kidney bean and is a mixture of five tetrameric glycoprotein. PHA stimulates T cells in the presence of accessory cells (but not B cells) by cross-linking a variety of critical T cell surface molecules, including CD3, CD2, CD4, CD8 and LFA-1 (Geppert, 1992). The involvement of CD28 in this stimulation is dependent on the degree of crosslinking by PHA. At the appropriate concentration of PHA, the simultaneous engagement of cell surface receptors results in a proliferation response that can bypass the need for specific costimulatory signals such as CD28. This can be monitored by examining CTLA-4Ig inhibition of PHA mitogenesis.

[2] = test system: binding of CTLA-4Ig to B7 on Cess B cells; assay: CTLA-4Ig/B7 binding assay on Cess B cells by FACS; conditions: FACS; assays of 3/24, 3/25, 4/5, 4/25; one symbol per assay
Protocol: +++ was assigned if the peptide tested gave >50% change in cpm in a dose dependent fashion. In addition to the MLR, these 34 peptides were also evaluated in a CTLA-4Ig/B7 binding assay in which the ability of these peptides to affect the binding of CTLA-4Ig to B7 on Cess B cells was examined by FACS analysis.
As with the MLR, a + or − was assigned to each peptide depending on its ability to effect CTLA-4Ig binding to Cess B cells; where − represents no change in binding, + represents a minor change of <10% in binding, and a ++ represents a change of >20% in binding.

[3] = test system: primary peripheral blood lymphocytes (PBLs); assay: Toxicity test on growing cell cultures; format: cell-based, human; conditions: 100 μM AT 199
Protocol: as §1, §2

[4] = test system: murine MLR splenocyte proliferation; assay: One-way murine MLR (C57Bl/6 stimulators, BalB/c responders); format: cell-based, mouse; conditions: 10 μg/ml CTLA-4Ig; stated as similar to AT 199.3
Protocol: One-way murine MLRs were set up using the C57Bl/6 mice splenocytes as stimulators and BalB/c splenocytes as responders.
Spleens were excised from mice (Jackson Laboratories, Bar Harbor, Ma.) 6-8 weeks of age. Cells were separated from the capsule using sterile frosted glass slides and washed in cold RPMI 1640 1×. Red blood cells were lysed by treating the spleen cell suspension with cold Tris ammonium chloride buffer (2 ml/spleen) for 3 min on ice. After lysis, the cells were washed 2× in 5 volumes of complete medium (RPMI 1640 containing 10 % heat-inactivated FBS, 2 mM glutamine, 50 μM 2-mercaptoethanol, 100 U/ml penicillin-100 μg/ml strepcomycin, 1 mM sodium pyruvate and 1 mM non-essential amino acids).
Plastic-adherent cells were removed from splenocytes of BalB/c mice by adjusting the cell concentration to 3×10^6 cells/ml in complete medium and incubating the cells for 1.5-2 h at 37° C. in T-75 flasks. Following incubation non-adherent cells were collected by gently washing the flasks and the percent recovery determined (60-70%). Bal b/C responder cells were stored on ice until mitomycin C treatment of stimulator cells was completed.
Following RBC lysis splenocytes of C57Bl/6 mice were adjusted to 2-4×10^6 cells/ml in complete medium and treated with mitomycin C (50 μg/ml) for 30 min at 37° C. in a humidified 5% CO2 in air atmosphere. Following treatment, cells were washed with 5 volumes of complete medium 3×, and viable counts determined using trypan blue.
To set up autologous stimulation controls some responder cells were also treated with mitomycin C as mentioned above.
For the assay, responder and stimulator cells were plated at 10^5 cells/well in 96-well round bottom plates. […]
Appropriate scrambled peptide controls and matrix controls were included in every assay. […] Proliferation of the cells was determined by pulsing the wells with 3H-Tdr (1 μCi/well) For the last 6 h of the assay. Plates were harvested and the counts incorporated determined as described above.

B7-1 = target: T1, B7-1 (Homo sapiens, UniProt P33681); conditions: CTLA-4Ig vs CD28Ig, higher affinity; cited from earlier work
T1 sequence (P33681 35-288): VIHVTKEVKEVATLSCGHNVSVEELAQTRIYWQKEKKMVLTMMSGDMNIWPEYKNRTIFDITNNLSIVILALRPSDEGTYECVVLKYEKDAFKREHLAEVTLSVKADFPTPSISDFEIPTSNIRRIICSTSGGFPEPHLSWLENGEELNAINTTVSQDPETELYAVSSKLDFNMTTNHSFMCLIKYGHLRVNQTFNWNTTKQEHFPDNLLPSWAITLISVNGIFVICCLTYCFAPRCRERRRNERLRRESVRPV

[5] = test system: Th1-type cytokines and antigen specific T cells; conditions: delayed administration of the protein; cited from earlier work

| Compound | IC50 [1] [µM] | Human MLR (ability to inhibit lymphocyte proliferation, cpm) ([1]; peptide 12.5 to 100 μM, assays of 1/24, 1/31, 3/6, 4/17, 5/2, one symbol per assay) | human MLR assays in which the peptide was active ([1]; total of 6 human MLR assays) | inhibition / effect on growth of THP-1 cells (THP-1 cells) | inhibition / effect on growth of Jurkat cells (Jurkat cells) | effect on PHA activation of PBLs / PHA stimulated T cells (PHA activated PBLs) | Binding Assay (effect on CTLA-4Ig binding to Cess B cells) [2] | inhibition / effect on growth of resting primary PBLs [3] | inhibition of the murine MLR [4] [%] | inhibition of PHA activation (PHA activated PBLs; 10 μg/ml CTLA-4Ig, PHA 2.5 and 5 μg/ml (FIG. 11)) | affinity for B7-1 relative to CD28Ig (B7-1) | blunted expansion of antigen specific T cells [5] [%] | reduction in Th1-type cytokines [5] |
| --- | --- | --- | --- | --- | --- | --- | --- | --- | --- | --- | --- | --- | --- |
| CSCC[C@@H]1NC(=O)[C@H](CC(C)C)NC(=O)[C@@H](NC(=O)[C@H](CCCCN)NC(=O)[C@@H](N)CCCNC(=N)N)CSSC[C@@H](C(=O)N[C@@H](Cc2c[nH]cn2)C(=O)N[C@@H](Cc2c[nH]cn2)C(N)=O)NC(=O)[C@H](Cc2ccc(O)cc2)NC(=O)[C@H](Cc2ccc(O)cc2)NC(=O)[C@@H]2CCCN2C(=O)[C@@H]2CCCN2C(=O)[C@@H]2CCCN2C(=O)[C@H](Cc2ccc(O)cc2)NC1=O [AT 199.1, RKCLMYPPPYYCHH] (HELM PEPTIDE1{R.K.C.L.M.Y.P.P.P.Y.Y.C.H.H.[am]}$PEPTIDE1,PEPTIDE1,3:R3-12:R3$$$V2.0; N-terminus assumed) | 50 to 100 | +, +, + | 5 out of 6 | no inhibition; also recorded: No effect | no inhibition; also recorded: No effect | only a minor effect; also recorded: did not inhibit | +, +, + | no inhibition; also recorded: No effect | – | – | – | – | – |
| CTLA-4Ig: Purified CTLA-4Ig fusion protein (murine) produced from a NS-1 cell line as in Steurer et al. 1995 | – | – | – | – | – | inhibited PHA activation slightly | – | – | ~85 | 40-50% | 20-100 fold | 50 | 80-90% |
